In data set [1] the test system is GFP-ATXN3 protein (Ataxin3Q84). The experiment in a line: In vitro cell test: GFP-ATXN3 fluorescence in transfected cells. The note with it: 5 μg/ml, 24 hours; HEK 293T or neural stem cells transfected with pEGFP-C1-Ataxin3Q84; FIG. 1. The data set is classed as cell-based, human. As to the method:
In this experiment, the effects of BP and ligustilide on the protein expression level of SCA3 protein were analyzed. First, pEGFP-C1-Ataxin3Q84 plasmid (i.e., a plasmid comprising Ataxin gene with abnormal CAG repeat number (84Q)) containing green fluorescent protein or pEGFP-C1-Ataxin3Q28 plasmid (i.e., a plasmid comprising Ataxin gene with normal CAG repeat number (28Q)) (Addgene company, U.S.) was transfected into human embryonic kidney (HEK) cells 293T (Bioresource Collection and Research Center, Taiwan) or neural stem cells (NSC). The cells were then cultured in a DMEM medium (Dulbecco's modified Eagle's medium, Thermo) containing 10% fetal bovine serum (Gibco), and incubated in an incubator with 5% CO2 at 37° C. Then, the cells were treated with 5 μg/ml BP (A10353, purchased from Alfa Aesar, U.S.; with a purity of 95%) or ligustilide (5393-015M1, purchased from Pharmaron, China) for 24 hours. The protein aggregation of GFP-ATXN3 protein in the cells of each group was observed by a fluorescence microscopy. Wild type cells and cells transfected with green fluorescent protein (GFP) were used as the control group.

For data set [2], the system named is zebrafish. Nature of the data set: Zebrafish safe dose test (survival rate). The data set is classed as in vivo. The note with it: for survival rate of the zebrafishes: after 48 hours, 28.5° C., FIG. 2. As to the method: In this experiment, the zebrafishes that were used as the animal models in the experimental group were Tg (HuC:GFP), which is characterized by its primary sensory neurons (Rohon-Beard cells) that can produce fluorescence. The zebrafishes used in the control group were wild type zebrafishes. All of the zebrafishes were provided by TZCAS (Taiwan Zebrafish Core Facility at Academia Sinica, Taiwan) and TZCF (Taiwan Zebrafish Core Facility, Taiwan). First, the toxicity of BP to zebrafish was tested by injecting different dose of BP to zebrafishes. The zebrafishes were then kept at 28.5° C. After 48 hours, the survival rate of the zebrafishes was observed.
The survival rate of the zebrafishes treated with 500 mg/kg BP was 50%, and both of the survival rates of the zebrafishes treated with 250 mg/kg and 50 mg/kg BP were greater than 75%.

Data set [3] concerns Purkinje cells. The experiment in a line: Immunohistochemistry staining of cerebellar slices. The data set is classed as in vivo. The note with it: cerebellum slices of SCA3 mice; BP 100 or 500 mg/kg/bid, ligustilide 100 mg/kg/bid; sacrificed at 20 and 24 weeks; FIG. 7. How it is done: (§1) The MJD84.2 transgenic mice (i.e., the mice with modified ATXN3 gene) of eight weeks of age were randomly divided into five groups, with six mice in each group. The mice were treated with the following conditions: (1) untreated group; (2) treated with olive oil; (3) treated with 100 mg/kg/bid of BP; (4) treated with 500 mg/kg/bid of BP; (5) treated with 100 mg/kg/bid of ligustilide. Then, the mice were sacrificed at the age of 20 weeks and 24 weeks. Cerebellar slices staining and tissue protein extraction were performed (see Example 5). Whole brain tissue of the mice was fixed overnight with 3.7% formalin and embedded in paraffin. The samples were sectioned (4 μm) by using a Quanto kit (Thermo, USA) and mounted on a microscope slide.

The test system of data set [4] is ubiquitin. Nature of the data set: Western blotting of cerebellum proteins, anti-ubiquitin antibody. The data set is classed as in vivo. The note with it: cerebellum tissue of SCA3 mice treated with BP; FIG. 9. As to the method: as §1
The cerebellums of the mice sacrificed in example 4 were separated from the whole brain, and the proteins in the cerebellums were extracted. The purified proteins were analyzed by Western blotting assay using an anti-ubiquitin antibody and an anti-calbindin antibody, respectively, to determine the changes in the protein expression level of ubiquitin and calbindin in the cerebellum tissue of SCA3 mice in each group. β-actin was used as an internal control group. […]
In general terms: A western blot detects proteins with antibodies after separation by electrophoresis.

Data set [5] relates to motor neurons of zebrafishes treated with ATXN3 MO. Nature of the data set: Zebrafish confocal microscopy test of motor neurons. The data set is classed as in vivo. The note with it: 250 mg/kg BP with ATXN3 MO, after 48 hours; FIG. 4. How it is done: Zebrafish eggs were micro-injected with 300 nM/μl ATXN3 MO, 250 mg/kgBP, or ATXN3 MO in combination with 250 mg/kgBP, 125 mg/kg BP or 62.5 mg/kgBP. After 48 hours, the zebrafishes were enclosed in glass slides. The motor neurons in the living body were recorded by a confocal fluorescence microscopy.
The data shown in FIG. 4 was obtained by 100%*(the number of the survived zebrafishes/total number of the zebrafishes).

For data set [6], the system named is zebrafishes injected with ATXN3 MO. The experiment in a line: Zebrafish behavioral test (tail stimulation). The data set is classed as in vivo. The following applies: FIG. 3. As to the method:
Morpholinos (MO) was produced by modifying the structure of a fragment of DNA, which can block protein translation process of mRNA to inhibit the expression of a target protein. The ATXN3 MO used in this experiment has a sequence of 5′-[…]-3′ (SEQ ID NO. 1), and the standard used in the control group is 5′-[…]-3′ (SEQ ID NO. 2) (hereinafter referred to as “Ct MO”). Before injection, the MO was dissolved in ddH2O, stored at −20° C. for used. Zebrafish eggs were micro-injected within about one hour after birth. After 21 to 48 hours post fertilization (hpf), the zebrafish eggs were micro-injected with ATXN3 MO or ATXN3 MO in combination with 250 mg/kg BP, 125 mg/kg BP or 62.5 mg/kg BP. After 48 hours, the fish tails were stimulated by tips, and the number of stimulation causing movement of the fish tails was measured.

For data set [7], the system named is calbindin. Nature of the data set: Western blotting of cerebellum proteins, anti-calbindin antibody. The data set is classed as in vivo. The note with it: cerebellum tissue of SCA3 mice; BP 100 or 500 mg/kg/bid, ligustilide 100 mg/kg/bid; FIG. 8. As to the method: as §1
The cerebellums of the mice sacrificed in example 4 were separated from the whole brain, and the proteins in the cerebellums were extracted. The purified proteins were analyzed by Western blotting assay using an anti-ubiquitin antibody and an anti-calbindin antibody, respectively, to determine the changes in the protein expression level of ubiquitin and calbindin in the cerebellum tissue of SCA3 mice in each group. β-actin was used as an internal control group.
It has been known that calbindin is a marker of Purkinje cells.

Data set [8] deals with MJD84.2 transgenic mice (SCA3 mice). The experiment in a line: Local motor test in SCA3 mice. The data set is classed as in vivo. The following applies: BP 100 or 500 mg/kg/bid, ligustilide 100 mg/kg/bid; for total moving distance vs untreated group and group fed with olive oil: FIG. 5A; for moving times (moving number) vs untreated group and group fed with olive oil: FIG. 5B; for moving time vs untreated group and group fed with olive oil: FIG. 5C. How it is done:
(§2) MJD84.2 transgenic mice (i.e., the mice being transfected with ATXN3 gene with human 84 CAG repeat sequence, hereinafter referred to as “SCA3 mice”) were used in this experiment. MJD84.2 transgenic mice were an animal model used for studying spinal cerebellar atrophy.
(§3) The MJD84.2 transgenic mice of two weeks of age were randomly divided into five groups, each group had six mice. The mice were treated with the following conditions for two weeks: (1) untreated group; (2) treated with olive oil (i.e., only treated with the adjuvant); (3) treated with 100 mg/kg/bid (bis in die) of BP; (4) treated with 500 mg/kg/bid of BP; (5) treated with 100 mg/kg/bid of ligustilide. The wild type mice (WT) was used as a control group. After 2 weeks, local motor and rotarod test were conducted.
Local motor test was performed to test the exercise ability of mice. 10-week-old mice were tested on rotarod once every three weeks. Then, the mice were placed in a transparent acrylic box 2 hours and were free to move. A behavioral test was conducted for 1 hour by using VersaMax 420 (AccuscanInstrumentsInc, USA), and the data was analyzed by statistical methods.

The test system is the same in data set [9]. Nature of the data set: Rotarod test in SCA3 mice. The note with it: BP 100 or 500 mg/kg/bid, ligustilide 100 mg/kg/bid, 4 to 40 rpm within 300 seconds, FIG. 6. The data set is classed as in vivo. How it is done:
as §2, §3
Rotarod test was performed to test the balance and grip ability of mice. The mice were given practice two weeks before the first behavioral test. The experiment was conducted using an IITC rotarod (IITC Life Science Inc, USA).
10-week-old mice were tested on a rotarod once every three weeks. The test condition was set as a linear acceleration from 4 to 40 rpm within 300 seconds. The time (sec) that the mice fell from the rotarod (i.e., latency to fall) was recorded. […] After the rotarod test, the body weight of the mice were recorded. […]
(In the rotarod test animals must keep their balance on a rotating rod.)

Molecules are shown by their SMILES.

Consider `CCCC=C1OC(=O)c2ccccc21` [BP, n-butylidenephthalide], for which the “fluorescent signal of Ataxin3Q84 in the cells vs untreated groups” value in data set [1] is given as “significantly lower”. In addition, the “survival rate of the zebrafishes” value in data set [2] (50 mg/kg BP injected) is reported as “greater than 75%”. The “survival rate of the zebrafishes” value in [2] (250 mg/kg BP injected) is “greater than 75%”. Also, the “survival rate of the zebrafishes” value in data set [2] (500 mg/kg BP injected) stood at 50%. In data set [2] (from survival rate after 48 hours), the “safe dose for zebrafish” value is on record as “lower than 250 mg/kg”. Also, the “number of the Purkinje cells vs untreated group and group fed with olive oil” value in [3] is reported as “significantly higher”. Moreover, the “content of the ubiquitination proteins vs untreated group and group fed with olive oil” value in data set [4] was “significantly higher”. Further, the “number of motor neurons” value in data set [5] is reported as “can maintain the number of motor neurons”. Besides, in [6] (ATXN3 MO in combination with 250, 125 or 62.5 mg/kg BP, after 48 hours, vs ATXN3 MO alone), the “amount of stimulation causing the movement of fish tails” value is “restored (i.e., decreased)”. Moreover, the “restoring of behavioral ability of the diseased zebrafishes, comparison of doses” value in data set [6] (BP of 250 mg/kg, compared with 125 and 62.5 mg/kg) is “the most obvious effect”. Moreover, the “protein expression level of calbindin vs untreated group and group fed with olive oil” value in [7] is listed as “significantly higher”. Also, in data set [8], the “total moving distance vs untreated group and group fed with olive oil” value is “higher”; the “moving times (moving number) vs untreated group and group fed with olive oil” value is recorded as “higher”; the “moving time vs untreated group and group fed with olive oil” value is “higher”. Besides, the “balance and grip ability (rotarod, latency to fall) vs untreated group and group fed with olive oil” value in [9] is “better”.
As to `CCC/C=C1\OC(=O)C2=C1CCC=C2` [ligustilide, 3-butylidene-4,5-dihydrophthalide], the “fluorescent signal of Ataxin3Q84 in the cells vs untreated groups” value in data set [1] is recorded as “significantly lower”. Also, the “number of the Purkinje cells vs untreated group and group fed with olive oil” value in data set [3] is given as “significantly higher”. In [7], the “protein expression level of calbindin vs untreated group and group fed with olive oil” value is on record as “significantly higher”. Besides, in data set [8], the “total moving distance vs untreated group and group fed with olive oil” value is recorded as “higher”; the “moving times (moving number) vs untreated group and group fed with olive oil” value is given as “higher”; the “moving time vs untreated group and group fed with olive oil” value is “higher”. For the same compound, in data set [9], the “balance and grip ability (rotarod, latency to fall) vs untreated group and group fed with olive oil” value is “better”.

Values taken from US9889117B2, “Method for treating and/or delaying the degeneration of Purkinje cells” (EVERFRONT BIOTECH INC., priority 2014, dated 2018).
